Our source for the inhibition values is patent EP0977036A1, “METHOD FOR ASSAYING AGALACTO-IgG AND ASSAY KITS, PO[…] LECTINS, AND DNAS ENCODING THE SAME” (SEIKAGAKU CORPORATION, priority 1996, dated 1998).

The assay relates to PVL. Description: Influence of various monosaccharides on the agalacto-IgG assay system (PVL immobilized on plate, peroxidase-labeled anti-human IgG antibody). The assay is classed as binding, Psathyrella velutina. Particulars: 50 mM monosaccharide added to agalacto-IgG standard solution (2.5 µg/ml); value without monosaccharide defined as 100%. The protocol:
PVL purified in Example 1 or commercially available PVL was diluted to 20 µg/ml in 0.1 M carbonate buffer containing 10% glycerol (pH 8.5 to 9), and 50 µl of this solution (1 µg/well) was added to each well of a Nunc immunoplate (trade name; Maxisorp, Nunc), and left at 4°C for 16 hours to uniformly coat each well.
This plate was washed twice with PBS(-), and PBS(-) solution containing 3% bovine serum albumin (BSA, sold by Seikagaku Corporation) was added as a blocking agent, and left stand at room temperature for two hours to coat the portions of the wells on which PVL was not immobilized.
Then, the plate was washed three times with a washing solution (PBS(-) containing 0.05% Tween 20), and 50 µl each of standard solutions at various concentrations (0.125 to 2 µg/ml) of the agalacto-IgG purified in Preparation Example 1 was added, and left stand at 37°C for 60 minutes for reaction. As the solvent of the agalacto-IgG standard solutions, PBS(-) containing 1% BSA and 0.05% Tween 20 (referred to as "reaction diluent" hereinafter) was used. […]
After the color development, 50 µl of 1 N HCl was added to the plate to terminate the reaction, and absorbance at a wavelength of 450 nm of the solution colored by the decomposition of TMB was measured (reference wavelength: 630 nm, A450/630) by Well Reader SK601 (sold by Seikagaku Corporation). […]

As to `CC(=O)N[C@H]1C(O)O[C@H](CO)[C@@H](O)[C@@H]1O` (stereo partly shown) [GlcNAc, N-acetylglucosamine], the inhibition result is given as “about 50%”.
